Reference: article PMC11579541, “In vitro, in vivo, and in silico approaches for evaluating the preclinical DMPK profiles of ammoxetine, a novel chiral serotonin and norepinephrine reuptake inhibitor” (Frontiers in Pharmacology, 2024)

Experiments:
Assay in all cases: CYP inhibition, cocktail-substrate method in HLM
Format in all cases: in vitro ADME
CYP 2C8 = biological target: T1, CYP 2C8 (Homo sapiens, UniProt P10632); details: probe amodiaquine
T1 construct: 0.5 mg/mL HLM, 1 mmol/L NADPH, and a cocktail of 10 probe substrates for 9 CYP isoforms; tissue BD (Woburn, USA); host or cells: pooled human liver microsomes
T1 sequence (P10632 1-490): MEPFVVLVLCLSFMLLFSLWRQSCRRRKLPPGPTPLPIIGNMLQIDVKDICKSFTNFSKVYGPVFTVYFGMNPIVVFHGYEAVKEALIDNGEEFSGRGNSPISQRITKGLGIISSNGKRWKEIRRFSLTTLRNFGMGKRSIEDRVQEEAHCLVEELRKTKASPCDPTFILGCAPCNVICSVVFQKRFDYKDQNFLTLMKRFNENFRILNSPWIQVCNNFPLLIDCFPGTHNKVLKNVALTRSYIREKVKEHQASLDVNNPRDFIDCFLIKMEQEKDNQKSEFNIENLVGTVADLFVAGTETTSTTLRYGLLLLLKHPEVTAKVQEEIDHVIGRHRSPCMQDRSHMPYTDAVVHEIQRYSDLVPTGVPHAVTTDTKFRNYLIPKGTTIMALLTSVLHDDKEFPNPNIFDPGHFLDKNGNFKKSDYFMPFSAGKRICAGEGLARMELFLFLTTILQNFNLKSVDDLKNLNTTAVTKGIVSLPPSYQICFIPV
Experimental: (§1) To assess the CYP inhibition profiling of ammoxetine, a high-throughput assay based on the cocktail-substrate method was performed, as described in the literature ([Kim et al., 2005]; [Kozakai et al., 2014]). Microsomal incubations were conducted in triplicate for 30 min at 37°C in a reaction system (200 μL) consisting of […] potassium phosphate buffer (pH 7.4), 0.5 mg/mL HLM, 1 mmol/L NADPH, and a cocktail of 10 probe substrates for 9 CYP isoforms. The final concentration of each CYP-specific substrate was chosen to be close to the Michaelis-Menten constant (K m ) value of the respective substrate ([Kim et al., 2005]; [Lee et al., 2024]). For instance, phenacetin (CYP 1A2) was used at a concentration of 50 μmol/L, coumarin (CYP 2A6) at 5 μmol/L, bupropion (CYP 2B6) at 50 μmol/L, amodiaquine (CYP 2C8) at 5 μmol/L, tolbutamide (CYP 2C9) at 100 μmol/L, S-mephenytoin (CYP 2C19) at 100 μmol/L, dextromethorphan (CYP 2D6) at 5 μmol/L, chlorzoxazone (CYP 2E1) at 50 μmol/L, and testosterone and midazolam (CYP 3A4) at 50 μmol/L. Ammoxetine was evaluated at five concentrations: 0.1, 1, 10, 50, and 100 μmol/L. Additionally, a blank control without ammoxetine was included. The incubation was terminated by adding an equal volume of ice-cold acetonitrile/methanol (1:1, v/v) along with the IS, dexmedetomidine (1 ng/mL). After a 20-fold dilution, the mixture was centrifuged at 13,800×g for 10 min at 4°C. The supernatants were used to measure the levels of metabolites from the respective probe substrates using an LC-MS-MS method. The half-maximal inhibitory concentration (IC50) values were subsequently calculated.

CYP 2E1 = biological target: T2, CYP 2E1 (Homo sapiens, UniProt P05181); details: probe chlorzoxazone
T2 construct: 0.5 mg/mL HLM, 1 mmol/L NADPH, and a cocktail of 10 probe substrates for 9 CYP isoforms; tissue BD (Woburn, USA); host or cells: pooled human liver microsomes
T2 sequence (P05181 whole entry, canonical isoform): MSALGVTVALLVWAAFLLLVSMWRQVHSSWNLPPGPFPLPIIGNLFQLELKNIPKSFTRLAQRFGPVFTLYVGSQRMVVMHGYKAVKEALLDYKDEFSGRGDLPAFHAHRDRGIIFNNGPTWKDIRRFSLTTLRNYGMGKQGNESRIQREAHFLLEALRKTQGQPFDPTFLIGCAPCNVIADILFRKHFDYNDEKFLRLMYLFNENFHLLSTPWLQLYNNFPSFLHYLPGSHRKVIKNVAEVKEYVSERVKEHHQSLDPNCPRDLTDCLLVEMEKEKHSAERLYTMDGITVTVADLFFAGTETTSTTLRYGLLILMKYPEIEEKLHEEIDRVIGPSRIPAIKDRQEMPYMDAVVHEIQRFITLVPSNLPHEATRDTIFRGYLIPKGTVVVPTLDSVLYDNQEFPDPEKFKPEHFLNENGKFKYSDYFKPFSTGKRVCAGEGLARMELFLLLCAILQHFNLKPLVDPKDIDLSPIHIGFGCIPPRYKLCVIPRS
Experimental: as §1

CYP 2A6 = biological target: T3, CYP 2A6 (Homo sapiens, UniProt P11509); details: probe coumarin
T3 construct: 0.5 mg/mL HLM, 1 mmol/L NADPH, and a cocktail of 10 probe substrates for 9 CYP isoforms; tissue BD (Woburn, USA); host or cells: pooled human liver microsomes
T3 sequence (P11509 1-494): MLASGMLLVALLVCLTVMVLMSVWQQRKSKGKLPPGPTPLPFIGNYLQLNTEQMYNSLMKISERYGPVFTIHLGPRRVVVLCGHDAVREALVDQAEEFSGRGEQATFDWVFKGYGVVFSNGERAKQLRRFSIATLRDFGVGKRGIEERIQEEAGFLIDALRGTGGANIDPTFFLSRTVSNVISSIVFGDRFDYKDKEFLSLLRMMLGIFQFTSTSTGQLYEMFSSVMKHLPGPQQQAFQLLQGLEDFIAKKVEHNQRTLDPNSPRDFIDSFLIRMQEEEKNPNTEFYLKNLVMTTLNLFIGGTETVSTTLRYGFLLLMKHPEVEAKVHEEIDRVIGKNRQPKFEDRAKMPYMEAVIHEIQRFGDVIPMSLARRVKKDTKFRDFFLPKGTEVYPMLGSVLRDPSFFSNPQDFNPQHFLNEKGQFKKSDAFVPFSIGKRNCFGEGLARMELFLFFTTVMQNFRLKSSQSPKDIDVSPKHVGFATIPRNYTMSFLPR
Experimental: as §1

Measured: IC50

CNCC[C@H](Oc1cccc2c1OCO2)c1cccs1 [ammoxetine]
> 100 µM: all assays above
